From PubChem BioAssay (NCI)
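Briefly, cells in 96-well plates were exposed to five compound concentrations for 48 h, and endpoints were estimated by linear interpolation. TGI: total growth inhibition.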

Key:
Experiment in all cases: growth of human tumour cells (NCI), 48 h
SK-OV-3 ovarian = test system: SK-OV-3 ovarian
DMS 114 small cell lung = test system: DMS 114 small cell lung
CCRF-CEM leukemia = test system: CCRF-CEM leukemia
HOP-18 NSCLC = test system: HOP-18 NSCLC
UACC-62 melanoma = test system: UACC-62 melanoma
MALME-3M melanoma = test system: MALME-3M melanoma
HCT-15 colon = test system: HCT-15 colon
SW-620 colon = test system: SW-620 colon
SR leukemia = test system: SR leukemia
KM12 colon = test system: KM12 colon
RPMI-8226 leukemia = test system: RPMI-8226 leukemia
HCT-116 colon = test system: HCT-116 colon
OVCAR-3 ovarian = test system: OVCAR-3 ovarian
SF-268 CNS = test system: SF-268 CNS
M14 melanoma = test system: M14 melanoma
M19-MEL melanoma = test system: M19-MEL melanoma
IGROV1 ovarian = test system: IGROV1 ovarian
KM20L2 colon = test system: KM20L2 colon
K-562 leukemia = test system: K-562 leukemia
HCC-2998 colon = test system: HCC-2998 colon
NCI-H460 lung = test system: NCI-H460 lung
ACHN renal = test system: ACHN renal
A549 NSCLC = test system: A549 NSCLC
SNB-78 CNS = test system: SNB-78 CNS
LOX IMVI melanoma = test system: LOX IMVI melanoma
RXF 393 renal = test system: RXF 393 renal
OVCAR-4 ovarian = test system: OVCAR-4 ovarian
SK-MEL-2 melanoma = test system: SK-MEL-2 melanoma
UO-31 renal = test system: UO-31 renal
NCI-H23 lung = test system: NCI-H23 lung
XF 498 CNS = test system: XF 498 CNS
SK-MEL-5 melanoma = test system: SK-MEL-5 melanoma
DMS 273 small cell lung = test system: DMS 273 small cell lung
HOP-62 NSCLC = test system: HOP-62 NSCLC
HL-60(TB) leukemia = test system: HL-60(TB) leukemia
OVCAR-8 ovarian = test system: OVCAR-8 ovarian
SNB-75 CNS = test system: SNB-75 CNS
U251 CNS = test system: U251 CNS
SF-295 CNS = test system: SF-295 CNS
HOP-92 NSCLC = test system: HOP-92 NSCLC
786-0 renal = test system: 786-0 renal
DLD-1 colon = test system: DLD-1 colon
OVCAR-5 ovarian = test system: OVCAR-5 ovarian
LXFL 529 NSCLC = test system: LXFL 529 NSCLC
SF-539 CNS = test system: SF-539 CNS
SK-MEL-28 melanoma = test system: SK-MEL-28 melanoma
A498 renal = test system: A498 renal
COLO 205 colon = test system: COLO 205 colon
HT29 colon = test system: HT29 colon
SN12C renal = test system: SN12C renal
UACC-257 melanoma = test system: UACC-257 melanoma
EKVX NSCLC = test system: EKVX NSCLC
SNB-19 CNS = test system: SNB-19 CNS
TK-10 renal = test system: TK-10 renal
CAKI-1 renal = test system: CAKI-1 renal
MOLT-4 leukemia = test system: MOLT-4 leukemia
NCI-H522 lung = test system: NCI-H522 lung
NCI-H226 lung = test system: NCI-H226 lung

## Cc1nn(C)cc1P(=S)(c1ccccc1)c1ccccc1
SK-OV-3 ovarian
  TGI: > 100 µM
DMS 114 small cell lung
  TGI: > 100 µM
CCRF-CEM leukemia
  TGI: > 100 µM
HOP-18 NSCLC
  TGI: > 100 µM
UACC-62 melanoma
  TGI: > 100 µM
MALME-3M melanoma
  TGI: > 100 µM
HCT-15 colon
  TGI: > 100 µM
SW-620 colon
  TGI: > 100 µM
SR leukemia
  TGI: > 100 µM
KM12 colon
  TGI: > 100 µM
RPMI-8226 leukemia
  TGI: > 100 µM
HCT-116 colon
  TGI: > 100 µM
OVCAR-3 ovarian
  TGI: > 100 µM
SF-268 CNS
  TGI: > 100 µM
M14 melanoma
  TGI: > 100 µM
M19-MEL melanoma
  TGI: > 100 µM
IGROV1 ovarian
  TGI: > 100 µM
KM20L2 colon
  TGI: > 100 µM
K-562 leukemia
  TGI: > 100 µM
HCC-2998 colon
  TGI: > 100 µM
NCI-H460 lung
  TGI: > 100 µM
ACHN renal
  TGI: > 100 µM
A549 NSCLC
  TGI: > 100 µM
SNB-78 CNS
  TGI: > 100 µM
LOX IMVI melanoma
  TGI: > 100 µM
RXF 393 renal
  TGI: > 100 µM
OVCAR-4 ovarian
  TGI: > 100 µM
SK-MEL-2 melanoma
  TGI: > 100 µM
UO-31 renal
  TGI: > 100 µM
NCI-H23 lung
  TGI: > 100 µM
XF 498 CNS
  TGI: > 100 µM
SK-MEL-5 melanoma
  TGI: > 100 µM
DMS 273 small cell lung
  TGI: > 100 µM
HOP-62 NSCLC
  TGI: > 100 µM
HL-60(TB) leukemia
  TGI: 41.7 µM
OVCAR-8 ovarian
  TGI: > 100 µM
SNB-75 CNS
  TGI: 85.1 µM
U251 CNS
  TGI: > 100 µM
SF-295 CNS
  TGI: > 100 µM
HOP-92 NSCLC
  TGI: > 100 µM
786-0 renal
  TGI: > 100 µM
DLD-1 colon
  TGI: > 100 µM
OVCAR-5 ovarian
  TGI: > 100 µM
LXFL 529 NSCLC
  TGI: > 100 µM
SF-539 CNS
  TGI: > 100 µM
SK-MEL-28 melanoma
  TGI: > 100 µM
A498 renal
  TGI: > 100 µM
COLO 205 colon
  TGI: > 100 µM
HT29 colon
  TGI: > 100 µM
SN12C renal
  TGI: > 100 µM
UACC-257 melanoma
  TGI: > 100 µM
EKVX NSCLC
  TGI: > 100 µM
SNB-19 CNS
  TGI: > 100 µM
TK-10 renal
  TGI: > 100 µM
CAKI-1 renal
  TGI: > 100 µM
MOLT-4 leukemia
  TGI: > 100 µM

## Fc1cccc2c1cc1ccc3cccc4ccc2c1c34
SK-OV-3 ovarian
  TGI: > 100 µM
CCRF-CEM leukemia
  TGI: > 100 µM
HOP-18 NSCLC
  TGI: > 100 µM
UACC-62 melanoma
  TGI: > 100 µM
MALME-3M melanoma
  TGI: > 100 µM
SW-620 colon
  TGI: > 100 µM
SR leukemia
  TGI: > 100 µM
KM12 colon
  TGI: > 100 µM
HCT-116 colon
  TGI: > 100 µM
OVCAR-3 ovarian
  TGI: > 100 µM
SF-268 CNS
  TGI: > 100 µM
M14 melanoma
  TGI: > 100 µM
NCI-H522 lung
  TGI: > 100 µM
M19-MEL melanoma
  TGI: > 100 µM
IGROV1 ovarian
  TGI: > 100 µM
KM20L2 colon
  TGI: > 100 µM
K-562 leukemia
  TGI: > 100 µM
HCC-2998 colon
  TGI: > 100 µM
ACHN renal
  TGI: > 100 µM
A549 NSCLC
  TGI: > 100 µM
SNB-78 CNS
  TGI: > 100 µM
LOX IMVI melanoma
  TGI: > 100 µM
RXF 393 renal
  TGI: > 100 µM
OVCAR-4 ovarian
  TGI: > 100 µM
SK-MEL-2 melanoma
  TGI: > 100 µM
UO-31 renal
  TGI: > 100 µM
NCI-H23 lung
  TGI: > 100 µM
XF 498 CNS
  TGI: > 100 µM
SK-MEL-5 melanoma
  TGI: > 100 µM
DMS 273 small cell lung
  TGI: > 100 µM
HOP-62 NSCLC
  TGI: > 100 µM
HL-60(TB) leukemia
  TGI: > 100 µM
OVCAR-8 ovarian
  TGI: > 100 µM
SNB-75 CNS
  TGI: > 100 µM
U251 CNS
  TGI: > 100 µM
SF-295 CNS
  TGI: > 100 µM
HOP-92 NSCLC
  TGI: > 100 µM
NCI-H226 lung
  TGI: > 100 µM
786-0 renal
  TGI: > 100 µM
DLD-1 colon
  TGI: > 100 µM
OVCAR-5 ovarian
  TGI: > 100 µM
LXFL 529 NSCLC
  TGI: > 100 µM
SF-539 CNS
  TGI: > 100 µM
SK-MEL-28 melanoma
  TGI: > 100 µM
A498 renal
  TGI: > 100 µM
COLO 205 colon
  TGI: > 100 µM
HT29 colon
  TGI: > 100 µM
SN12C renal
  TGI: > 100 µM
UACC-257 melanoma
  TGI: > 100 µM
EKVX NSCLC
  TGI: > 100 µM
SNB-19 CNS
  TGI: > 100 µM
TK-10 renal
  TGI: > 100 µM
CAKI-1 renal
  TGI: > 100 µM
MOLT-4 leukemia
  TGI: > 100 µM
